pEC50: −log10 of the molar value. Starred links: 1 amine or outer side, 2 acyl side, 3 side chain; linkers in the order of their positions; H or OH if unused. Positions of bridges follow the written chain, without caps; N, C: chain ends. Non-standard residues stand in square brackets, D forms with d. Residues, ends and D or L forms follow the SMILES beside them. Triazole bridges read from a SMILES are 1,4-linked. *: point of attachment. DOTA = O=C(O)CN1CCN(CC(=O)O)CCN(CC(=O)*)CCN(CC(=O)O)CC1; Pteroyl = Nc1nc2ncc(CNc3ccc(C(=O)*)cc3)nc2c(=O)[nH]1; Biotin = O=C1N[C@H]2[C@H](CS[C@H]2CCCCC(=O)*)N1; Lys(N3) = [N-]=[N+]=NCCCC[C@H](N)C(=O)O; γGlu = O=C(O)[C@H](CCC(=O)[*:2])N[*:1]; AEEEA = NCCOCCOCCOCC(=O)O; Pra = C#CC[C@H](N)C(=O)O
Assays:
in vivo = settings: female, NSG, mouse, iv, total radioactivity
Description: (§1) Water and food were provided ad libitum. […] Tumor growth was monitored by caliper measurements.
CT scans were acquired for anatomical reference. Imaging was performed on a GENISYS^8 microPET/CT small animal scanner.
NSG mice were engrafted with OVCAR3 cells subcutaneously. […] Absorption of the radiotracer by highly perfused organs including the lungs indicate systemic circulation of the compound. Compound clearance is driven at the very early timepoints by a combination of hepatic and renal excretion. Over time, clearance is exclusively renal with retention of the compound in the tumor, and kidney.

[1] = system: OVCAR3 (FOLR1+) tumor bearing NSG mice; settings: mouse, in vivo
Description: Female, 7-week-old NSG mice were housed under pathogen-free conditions. Water and food were provided ad libitum. To create mice with FOLR1+ ovarian xenograft tumors, mice were injected subcutaneously with OVCAR3 cells (1×10^7 cells per mouse) resuspended in 50% Matrigel in PBS into the shoulder region. Tumor growth was monitored by caliper measurements. OVCAR3 is a human ovarian adenocarcinoma known to over-express FOLR1.
^68Ga PET imaging was used to study in vivo biodistribution of heterobiligands in non-tumor bearing (healthy) mice and OVCAR3 tumor bearing mice. 100-200 μCi of [^68Ga]DOTA-labeled heterobiligand was administered intravenously (i.v.) via the tail vein of each mouse. […]
Evaluation of a folate-hshta (SEQ ID NO:6) Nterm heterobiligand bearing both an albumin binder and DOTA chelator in PET was a priority, given that DOTA can accommodate both ^68Ga for imaging and ^177Lu for radiotherapy. […] The time-course biodistribution of ^68Ga-labeled folate-hshta-PEG3-Lys(MPBA)-Lys(DOTA) (SEQ ID NO:6) (compound #2809) was calculated to quantify the uptake in major organs including the tumor (FIG. 17). […] Larger tumors (490 mm^3) were also evaluated with the ^68Ga-chelated PET probe.
Biodistribution was initially evaluated by PET imaging, as the time frame for a significant portion of clearance is roughly similar to the time frame of PET imaging experiments. […]

[2] = system: OVCAR3 FOLR1+ cells (PC-3 FOLR1− cells as negative line); test: Flow cytometry binding to FOLR1 (+) and FOLR1 (−) cell lines; assay type: cell-based, human; settings: for binding selectivity for FOLR1 (+) cells over FOLR1 (−) cells: OVCAR3 vs PC-3, flow cytometry
Description: Both the kyeet (SEQ ID NO:9) and hshta (SEQ ID NO:6)-derived biligands were tested by flow cytometry for binding to FOLR1 (+) and FOLR1 (−) cell lines (FIGS. 6 and 7). The human ovarian adenocarcinoma-derived cell line OVCAR3 has robust FOLR1 expression and was selected as the FOLR1 (+) cell line. The human prostate adenocarcinoma-derived cell line PC-3 was selected as a FOLR1 (−) cell line.

FOLR1 [3] = molecular target: T1, FOLR1 (Homo sapiens, UniProt P15328); test: ELISA assay of FOLR1 binding; settings: for pEC50: read-out: EC50 (ELISA, FOLR1)
T1 sequence (P15328 25-234): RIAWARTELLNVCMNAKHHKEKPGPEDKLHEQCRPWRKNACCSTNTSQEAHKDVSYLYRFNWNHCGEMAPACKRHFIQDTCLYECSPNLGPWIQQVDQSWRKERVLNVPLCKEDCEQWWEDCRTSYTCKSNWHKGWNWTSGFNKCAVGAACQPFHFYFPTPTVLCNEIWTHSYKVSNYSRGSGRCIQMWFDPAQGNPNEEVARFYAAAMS
Description: FIG. 5 is a diagram of ELISA assay of FOLR1 binding of heterobiligands.

OVCAR3 xenograft [4] = test: 177Lu FOLR1 radioligand therapy of OVCAR3 xenografts; assay type: in vivo, mouse
Description: as §1
OVCAR3 tumor bearing mice were used to study FOLR1-directed radioligand therapy (RLT) for treatment of ovarian cancer. Animals were administered a single dose of heterobiligand (vehicle control) or 111, 37, 18.5, 9.25, or 3.7 MBq [^177Lu]DOTA-labeled heterobiligand. Mice received the dose intravenously (i.v.) via the tail vein. To monitor the effect of the RLT, tumor size measurements were taken twice weekly and body weights were measured.
Single dose treatments at 18.5 MBq/nmol specific activity. OVCAR3 mouse model was used. 10^7 cell tumors were implanted in the mice one month before administration of ^177Lu-#6305. Five mice each were administered Cold #6305, 9.25 MBq Lu177-#6305, and 14.8 MBq Lu177-#6305, and two mice were administered 29.6 MBq Lu177-#6305. Tumor growth and body weight were then monitored.
Female NSG mice were implanted subcutaneously with OVCAR3 cells. Once tumors reached volumes of 200 mm^3, the animals were treated with 177-Lu 7327. Three treatment arms of 9.25 MBq, 14.8 MBq, and 29.6 MBq were studied.

[5] = Maximum tolerated dose (MTD) tolerability study
Description: In order to establish a maximum tolerated dose (MTD), a tolerability study was undertaken testing increasing amounts of the 177-Lu heterobiligand 7327 (folate-hshta-Gly-Phe-Lys(DOTA)). Animals were monitored for signs of toxicity and weighed twice weekly. […] The second and third doses were administered 21 days following the previous dose.
Efforts were undertaken to evaluate 177-Lu 6305 (folate-hshta-Lys(MPBA)-Gly-Phe-Lys(DOTA)), a compound with a brush border cleavable linker in addition to an albumin binder. […] Two separate MTD experiments were undertaken. […] A second experiment interrogated lower doses.
In order to establish a MTD, dose range finding studies were undertaken testing increasing amounts of Indi ^177Lu-7327 in healthy, non-tumor bearing female NSG mice using IV administration (FIGS. 34 and 35). Mouse body weight and behavior were monitored. […] The second and third doses were administered 21 days following the previous dose.

OVCAR3 xenograft [6] = test: 177Lu FOLR1 radioligand therapy of OVCAR3 xenografts; assay type: in vivo, mouse; remark: listed apart in the source
FOLR1 [7] = molecular target: T1, FOLR1; test: Folic acid competition ELISA; assay type: binding
Description: A competition experiment was conducted to further understand the binding kinetics of the lead heterobiligand (folate-hshta (SEQ ID NO:6) Nterm heterobiligand).

Question: Which tissue uptake per volume at 4 h (in vivo; accumulation in the tumor) does the source give for C[C@H](O)[C@H]1NC(=O)[C@@H](Cc2cnc[nH]2)NC(=O)[C@@H](CO)NC(=O)[C@@H](Cc2cnc[nH]2)NC(=O)[C@@H](NC(=O)CC[C@H](NC(=O)c2ccc(NCc3cnc4nc(N)[nH]c(=O)c4n3)cc2)C(=O)O)Cc2cn(nn2)CCCC[C@@H](C(=O)NCCOCCOCCOCC(=O)N[C@@H](CCCCNC(=O)CO/N=C/c2ccc([18F])cc2)C(N)=O)NC(=O)[C@@H](C)NC1=O here?
Answer: Its tissue uptake per volume at 4 h is about 4 %ID/mL.

Question: What about the tissue uptake per volume at 4 h (in vivo; radiotracer accumulation in the tumor) of the same molecule?
Answer: Its tissue uptake per volume at 4 h is 3.5 to 5.5 %ID/mL.

Question: With C[C@H](O)[C@H]1NC(=O)[C@@H](Cc2cnc[nH]2)NC(=O)[C@@H](CO)NC(=O)[C@@H](Cc2cnc[nH]2)NC(=O)[C@@H](NC(=O)CC[C@H](NC(=O)c2ccc(NCc3cnc4nc(N)[nH]c(=O)c4n3)cc2)C(=O)O)Cc2cn(nn2)CCCC[C@@H](C(=O)NCC(=O)N[C@@H](Cc2ccccc2)C(=O)N[C@@H](CCCCNC(=O)CN2CCN(CC(=O)O)CCN(CC(=O)O)CCN(CC(=O)O)CC2)C(=O)O)NC(=O)[C@@H](C)NC1=O [Indi ^68Ga-7327, metal not drawn] ({Pteroyl-γGlu}-[Pra][dH][dS][dH][dT][dA][Lys(N3)]GFK(DOTA)-OH; triazole 1-7) as the molecule, how does the “kidney uptake (PET)” value [1] read?
Answer: The value was “significant reduction in kidney uptake”.

Question: What does the source list for C[C@H](O)[C@H]1NC(=O)[C@@H](CCC(=O)O)NC(=O)[C@@H](CCC(=O)O)NC(=O)[C@@H](Cc2ccc(O)cc2)NC(=O)[C@@H](CCCCN)NC(=O)[C@@H](NC(=O)[C@H](Cc2cn(CCOCCOCCOCCNC(=O)CC[C@H](NC(=O)c3ccc(NCc4cnc5nc(N)[nH]c(=O)c5n4)cc3)C(=O)O)nn2)NC(=O)CCOCCOCCOCCOCCOCCOCCOCCOCCOCCOCCNC(=O)CCOCCOCCOCCOCCOCCOCCOCCOCCOCCOCCNC(=O)CCCC[C@@H]2SC[C@@H]3NC(=O)N[C@@H]32)Cc2cn(nn2)CCCC[C@@H](C(N)=O)NC1=O [folate-kyeet heterobiligand]?
Answer: binding selectivity for FOLR1 (+) cells ([2]; 40 nM of the test article): Virtually complete selectivity; binding selectivity for FOLR1 (+) cells over FOLR1 (−) cells [2]: high selectivity; pEC50 (FOLR1 [3]): 9.83

Question: Which caliper-measured tumor volume (OVCAR3 xenograft [4]; 29.6 MBq arm, following the second dose) does the source give for “Folate-hshta-G-F-K(^177Lu-DOTA)-OH [^177Lu-#7327]” here?
Answer: Its caliper-measured tumor volume is “stabilized and then fell”.

Question: What about the “time to statistically significant differential between treated and untreated” value (OVCAR3 xenograft [4]; 29.6 MBq arm, p≤0.05) of the same molecule?
Answer: Its value is 12 days post injection.

Question: And the “loss of body weight” value (OVCAR3 xenograft [4]; 29.6 MBq dose, two doses)?
Answer: The value was 5-10%.

Question: And the “body weights of treated mice” value (OVCAR3 xenograft [4]; (+/−10%))?
Answer: Its value is “normal body weights”.

Question: And the tumor response (OVCAR3 xenograft [4]; two treatments at 29.6 MBq followed by a third treatment at 74 MBq)?
Answer: Its tumor response is “Tumor regression”.

Question: And the tolerability ([5]; doses of 111 MBq and 185 MBq)?
Answer: Its tolerability is “not tolerated”.

Question: What about the tolerability ([5]; doses of 111 MBq and 185 MBq, listed as Indi ^177Lu-7327) of the same molecule?
Answer: Its tolerability is “lost substantial body weight”.

Question: And the tolerability ([5]; repeated doses of 14.8, 22.2, 29.6, and 37 MBq, 21 days apart)?
Answer: The tolerability was “well tolerated”.

Question: And the tolerated radioactive doses ([5]; three treatments, healthy non-tumor bearing female NSG mice)?
Answer: Its tolerated radioactive doses is “up to 111 MBq”.

Question: And the “body weight loss after second dose” value (OVCAR3 xenograft [6]; 9.25 MBq and 14.8 MBq arms, second dose 21 days after first)?
Answer: Its value is “minimal”.

Question: What about the “tolerability of first dose” value (OVCAR3 xenograft [6]; 9.25 MBq, 14.8 MBq, and 29.6 MBq arms) of the same molecule?
Answer: Its value is “well tolerated”.

Question: What about the “tumor sizes after additional treatment on day 24” value (OVCAR3 xenograft [6]; 46.3, 74 and 148 MBq groups) of the same molecule?
Answer: Its value is “shrinking tumor sizes”.

Question: What about the tumor volumes (OVCAR3 xenograft [6]; 46.3 MBq group, elevated dose) of the same molecule?
Answer: The tumor volumes was “stable tumor volumes”.

Question: And the “decrease of tumor volumes, on average” value (OVCAR3 xenograft [6]; 74 MBq and 148 MBq arms, single elevated dose at 45 days post injection)?
Answer: The value was 50%.

Question: And the body weight (OVCAR3 xenograft [6]; 74 MBq and 148 MBq, elevated dose)?
Answer: The body weight was “modest body weight loss”.

Question: And the “time to statistically significant differential between treated and control” value (OVCAR3 xenograft [6]; 74 MBq arm)?
Answer: The value was 24 days post-injection.

Question: And the “body weight after second dose” value (OVCAR3 xenograft [6]; highest dose (29.6 MBq))?
Answer: The value was “modest loss of body weight that stabilized and then rebounded”.

Question: What about the tumor volume (OVCAR3 xenograft [6]; two doses at 74 MBq, 21 days apart, vs 0 MBq control) of the same molecule?
Answer: Its tumor volume is “decrease in tumor volume”.

Question: What about the tumor volume (OVCAR3 xenograft [6]; two doses, arms of 9.25, 14.8, and 29.6 MBq) of the same molecule?
Answer: The tumor volume was “dose dependent decrease in tumor volume”.

Question: What about the tumor response (OVCAR3 xenograft [6]; two treatments at 29.6 MBq) of the same molecule?
Answer: The tumor response was “tumor stasis”.

Question: And the tumor response (OVCAR3 xenograft [6]; two treatments at 74 MBq)?
Answer: The tumor response was “Tumor stasis”.

Question: And the “outcompeting native folate for receptor binding” value (FOLR1 [7])?
Answer: Its value is “approximately 500 fold”.

Question: Which results are given for C[C@H](O)[C@H]1NC(=O)[C@@H](Cc2ccc(O)cc2)NC(=O)[C@@H](CCCNC(=N)N)NC(=O)[C@@H](CCC(=O)O)NC(=O)[C@@H](CC(=O)O)NC(=O)[C@@H](NC(=O)[C@H](Cc2cn(CCOCCOCCOCCNC(=O)CC[C@H](NC(=O)c3ccc(NCc4cnc5nc(N)[nH]c(=O)c5n4)cc3)C(=O)O)nn2)NC(=O)CCOCCOCCOCCOCCOCCOCCOCCOCCOCCOCCNC(=O)CCOCCOCCOCCOCCOCCOCCOCCOCCOCCOCCNC(=O)CCCC[C@@H]2SC[C@@H]3NC(=O)N[C@@H]32)Cc2cn(nn2)CCCC[C@@H](C(N)=O)NC1=O [Folate-deryt]?
Answer: binding selectivity for FOLR1 (+) cells over FOLR1 (−) cells [2]: excellent selectivity; pEC50 (FOLR1 [3]): 9.55

Question: With C[C@H](O)[C@H]1NC(=O)[C@@H](Cc2c[nH]cn2)NC(=O)[C@@H](CO)NC(=O)[C@@H](Cc2c[nH]cn2)NC(=O)[C@@H](NC(=O)[C@H](Cc2cn(CCOCCOCCOCCNC(=O)CC[C@H](NC(=O)c3ccc(NCc4cnc5nc(N)[nH]c(=O)c5n4)cc3)C(=O)O)nn2)NC(=O)CCOCCOCCOCCOCCOCCOCCOCCOCCOCCOCCNC(=O)CCOCCOCCOCCOCCOCCOCCOCCOCCOCCOCCNC(=O)CCCC[C@@H]2SC[C@@H]3NC(=O)N[C@@H]32)Cc2cn(nn2)CCCC[C@@H](C(N)=O)NC(=O)[C@@H](C)NC1=O [Tz heterobiligand] as the molecule, how does the “binding selectivity for FOLR1 (+) cells over FOLR1 (−) cells” value [2] read?
Answer: The value was “high selectivity”.

Question: And the pEC50 (FOLR1 [3])?
Answer: The pEC50 was 9.97.

Question: Which results are given for C[C@H](O)[C@H]1NC(=O)[C@@H](Cc2c[nH]cn2)NC(=O)[C@@H](CO)NC(=O)[C@@H](Cc2c[nH]cn2)NC(=O)[C@@H](NC(=O)COCCOCCOCCNC(=O)CCCC[C@@H]2SC[C@@H]3NC(=O)N[C@@H]32)Cc2cn(nn2)CCCC[C@@H](C(N)=O)NC(=O)[C@@H](C)NC1=O [hshta] ({Biotin-AEEEA}-[Pra][dH][dS][dH][dT][dA][Lys(N3)]-NH2; triazole 1-7)?
Answer: binding selectivity for FOLR1 (+) cells over FOLR1 (−) cells [2]: higher selectivity for FOLR1 than kyeet; affinity for recombinant human FOLR protein in ELISA (FOLR1 [3]; tested alone): low micromolar affinity

— patent publication US11766414B2, “Compositions, delivery systems, and methods useful in tumor therapy” (Indi Molecular, Inc., priority 2020, dated 2023)
